Experimental data from patent publication US11464224B2, “Liquid spreading composition with ectoparasiticidal activity, a method and use thereof for combating ectoparasites in human and veterinary medicine, as well as in agricultural, horticultural and/or garden environments” (priority 2014, dated 2022).
Where two headings read alike, the source gives them in different places.

Assays:
[1] = Spreading test: 5 μl drop on glass plate, area covered after 30 min; type: physicochemical; conditions: 25° C.
Text: The following tests have been performed to measure and compare spreading properties of the composition prepared according to Example 1 (N) with Isopropyl Myristate (IPM) and Diethylene Glycol Monoethyl Ether (DGME), known from the state of art as spreading agents. All compositions acted as a carrier of an active insecticidal substance: clove oil (an insect repellent), S-Methoprene (biochemical pesticide interfering with an insect's lifecycle and preventing it from reaching maturity or reproducing) or Etofenprox (neurotoxic insecticide, which disturbs insect nervous systems).
Area (S) of the surface (cm^2) covered by the composition has been measured after 30 min. As an alternative spreading indicator one might also employ Emollient Skin Spreading Factor as defined by Croda (Croda DS-128, Emollient Skin Spreading Factor (1998)).
The following tests have been performed to measure and compare spreading properties of the composition prepared according to Example 1 with ectoparasiticidal compositions known from the state of art. As in the previous tests 5 μl drop of the composition has been applied in the middle of a glass plate at 25° C. Area of the surface (cm^2) covered by the composition has been measured after 30 min.

adult lice = conditions: cited from earlier work

SMILES	S, area of the surface covered by the composition (active substance carriers) [1]	Mortality of adult lice (adult lice; concentration below 70% by weight)	Mortality of adult lice (adult lice; concentration of over 80% by weight)
CCCCCCCCCCCCCC(=O)OC(C)C [compound 10, Isopropyl Myristate]	0.6 cm^2	less than 20%	100%
CCOCCOCCO [compound 11, Diethylene Glycol Monoethyl Ether]	0.6 cm^2		
